Reference: patent US20140079632A1, “ACTIVITY-BASED PROBES FOR THE UROKINASE P[…]” (UNIVERSITEIT ANTWERPEN, priority 2011, published 2014)

Tests used:
Type in all cases: biochemical
uPA [1] = target: T1, uPA (Homo sapiens, UniProt P00749); assay: uPA inactivation kinetics from progress curves (kobs versus inhibitor concentration, kapp); settings: asterisked: compound showed a two-step mechanism, kapp calculated as k2/K1; 250 μM substrate; 37° C.
T1 construct: purchased Nodia
Procedure: (§1) Inhibitor stock solutions were prepared in DMSO and stored at −20° C. Because the compounds described in this paper completely inactivate uPA following pseudofirst-order kinetics, the IC50 value is inversely correlated with the second-order rate constant of inactivation. For a simple pseudofirst-order inactivation process, the activity after incubation with inhibitor (vi) varies with the inhibitor concentration (i), as described in the following equation: […]
where vo is the activity in absence of inhibitor, k is the second-order rate constant of inactivation, and t is the time. The inactivation rate constant was determined from the time course of inhibition.
The inhibitor was mixed with the substrate (250 μM final concentration), and the buffer solution with the enzyme was added at the time zero. The inhibitor concentrations were chosen to obtain total inhibition of the enzyme within 20 min. The progress curves show the absorbance of p-nitroanilide produced as a function of time. Initially, no inhibitor is bound to the enzyme, and the tangent to the progress curve (dA/dt) is proportional to the concentration of the free enzyme. The concentration of free enzyme decreases over time due to the kinetics of inhibitor binding, as described above. Progress curves were recorded in pseudofirst-order conditions ([I]0>>[E]0) and with less than 10% conversion of the substrate during the entire time course. In these conditions, dA/dt decreases exponentially with time. The progress curves were fitted with the integrated rate equation to yield a value for kobs, a pseudofirst-order rate constant
At=v0[1−e^−k^obs^t]/kobs+A0
where At=absorbance at time t, A0=absorbance at time zero, and v0=uninhibited initial rate.
The apparent second-order rate constant (kapp) was calculated from the slope of the linear part of the plot of kobs versus the inhibitor concentration ([I]0). In case of competition between the inhibitor and the substrate, kapp is smaller than the “real” second order rate constant k discussed above because a certain fraction of the enzyme is present as an enzyme-substrate complex. kapp depends on the substrate concentration used in the experiment, as described by Lambeir et al.^40 For most final compounds, the kobs versus [I]0 plot was not linear, but could be fitted with a hyperbolic function: kobs=k2[I]0/(K1+[I]0) (two step mechanism). Where K1 is the dissociation constant of the reversible enzyme-inhibitor complex and k2 is the first-order rate constant associated with irreversible modification of the enzyme. A kapp could be calculated as k2/K1.

[2] = target: T2, plasmin (from human plasma) (Homo sapiens, UniProt P00747); assay: Selectivity: plasmin inhibition, substrate Biophen CS-21(66); settings: 15 min preincubation; Tris buffer pH 7.4; 580 μM substrate
T2 construct: purchased Sigma; host or cells: human plasma
T2 sequence (P00747 581-810 limits assumed): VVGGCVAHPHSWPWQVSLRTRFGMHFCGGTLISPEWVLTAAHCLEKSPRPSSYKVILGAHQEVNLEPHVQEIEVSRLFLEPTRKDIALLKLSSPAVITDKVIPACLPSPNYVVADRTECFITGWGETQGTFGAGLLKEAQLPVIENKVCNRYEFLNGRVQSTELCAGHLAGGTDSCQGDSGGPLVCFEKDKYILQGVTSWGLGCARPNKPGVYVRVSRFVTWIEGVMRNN
T2 sequence (P00747 97-580 partner limits assumed): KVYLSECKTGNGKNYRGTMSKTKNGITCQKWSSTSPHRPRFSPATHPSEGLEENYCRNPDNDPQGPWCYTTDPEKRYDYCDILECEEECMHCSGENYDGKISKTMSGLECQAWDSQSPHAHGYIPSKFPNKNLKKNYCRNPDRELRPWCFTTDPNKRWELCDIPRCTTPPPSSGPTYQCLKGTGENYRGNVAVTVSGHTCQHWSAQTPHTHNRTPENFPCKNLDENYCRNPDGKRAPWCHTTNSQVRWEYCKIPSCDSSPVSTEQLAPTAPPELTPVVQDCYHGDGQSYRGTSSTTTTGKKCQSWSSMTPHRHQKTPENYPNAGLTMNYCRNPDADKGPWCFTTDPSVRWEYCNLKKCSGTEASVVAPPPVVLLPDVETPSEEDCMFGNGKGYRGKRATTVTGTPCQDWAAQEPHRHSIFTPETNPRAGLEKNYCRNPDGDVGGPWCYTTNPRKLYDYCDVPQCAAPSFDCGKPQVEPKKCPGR
Procedure: (§2) The substrate and human enzyme were obtained from Nodia. The reaction was monitored at 405 nm, and the initial rate was determined between 0 and 0.25 absorbance units in 20 min. […] A 50 mM Tris buffer, pH 8.8, was used. From each inhibitor concentration, 5 μL was added, obtaining a final concentration from 0 to 250 μM in a total volume of 0.2 mL. Activity measurements were routinely performed in duplicate. […] IC50 values were obtained by fitting the data with the four-parameter logistics equation using Grafit 5.
(§3) The IC50 values for plasmin (from human plasma, Sigma), tPA (recombinant, Nodia), thrombin (from human plasma, Sigma), and FXa were determined in the same way as for uPA.
(§4) For tPA and thrombin, Tris buffer, pH 8.3, was used, for FXa, Tris buffer, pH 8.3, for plasmin, Tris buffer, pH 7.4, was used.

uPA [3] = target: T1, uPA; assay: uPA inhibition: in vitro evaluation, IC50 with chromogenic substrate Biophen CS-61(44); settings: 15 min preincubation at 37° C.; Tris buffer pH 8.8; 250 μM substrate
Procedure: Enzymatic activity was measured at 37° C. in a Spectramax 340 (Molecular Devices) microtiter plate reader using the chromogenic substrate Biophen CS-61(44) (LpyroGlu-Gly L-Arg-p-NA.HCl), with a Km of 80 μM.
The substrate and human enzyme were obtained from Nodia. The reaction was monitored at 405 nm, and the initial rate was determined between 0 and 0.25 absorbance units in 20 min. The reaction mixture contained 250 μM substrate and approximately 1 mU of enzyme in 145 μL of buffer in a final volume of 200 μL. A 50 mM Tris buffer, pH 8.8, was used. From each inhibitor concentration, 5 μL was added, obtaining a final concentration from 0 to 250 μM in a total volume of 0.2 mL. Activity measurements were routinely performed in duplicate. […] IC50 values were obtained by fitting the data with the four-parameter logistics equation using Grafit 5.
where s=slope factor, v=rate, I0=inhibitor concentration, and range=the fitted uninhibited value minus the background. The equation assumes the y falls with increasing x.
as §1

[4] = target: T3, thrombin (from human plasma) (Homo sapiens, UniProt P00734); assay: Selectivity: thrombin inhibition, substrate Biophen CS-21(66); settings: 15 min preincubation; Tris buffer pH 8.3; 580 μM substrate
T3 construct: thrombin (from human plasma, Sigma); purchased Sigma; host or cells: human plasma
Procedure: as §2, §3, §4

tPA (recombinant) = target: T4, tPA (recombinant) (Homo sapiens, UniProt P00750); assay: Selectivity: tPA inhibition, substrate Biophen CS-05(88); settings: 15 min preincubation; Tris buffer pH 8.3; 1.25 mM substrate
T4 construct: purchased Nodia
T4 sequence (P00750 36-562, species assumed): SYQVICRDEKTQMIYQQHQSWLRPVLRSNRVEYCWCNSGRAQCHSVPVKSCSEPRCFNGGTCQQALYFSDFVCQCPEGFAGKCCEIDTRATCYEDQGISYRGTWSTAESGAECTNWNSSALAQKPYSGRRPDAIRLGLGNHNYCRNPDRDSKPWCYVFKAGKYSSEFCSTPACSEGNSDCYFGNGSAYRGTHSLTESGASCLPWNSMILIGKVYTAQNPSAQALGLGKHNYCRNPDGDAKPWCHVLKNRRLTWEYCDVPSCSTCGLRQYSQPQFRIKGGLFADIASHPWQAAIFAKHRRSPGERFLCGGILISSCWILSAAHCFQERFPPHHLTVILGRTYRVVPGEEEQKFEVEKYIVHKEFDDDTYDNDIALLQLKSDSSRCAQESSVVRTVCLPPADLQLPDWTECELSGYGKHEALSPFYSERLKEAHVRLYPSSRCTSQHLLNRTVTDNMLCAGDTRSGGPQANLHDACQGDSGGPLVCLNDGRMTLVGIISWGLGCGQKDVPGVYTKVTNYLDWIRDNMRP
Procedure: as §2, §3, §4

FXa = FXa (Homo sapiens, UniProt P00742); assay: Selectivity: FXa inhibition, substrate Biophen CS-11(32); settings: for FXa % (I) @ 250: at 250 (μM)
Chain of FXa (P00742 235-488 limits assumed): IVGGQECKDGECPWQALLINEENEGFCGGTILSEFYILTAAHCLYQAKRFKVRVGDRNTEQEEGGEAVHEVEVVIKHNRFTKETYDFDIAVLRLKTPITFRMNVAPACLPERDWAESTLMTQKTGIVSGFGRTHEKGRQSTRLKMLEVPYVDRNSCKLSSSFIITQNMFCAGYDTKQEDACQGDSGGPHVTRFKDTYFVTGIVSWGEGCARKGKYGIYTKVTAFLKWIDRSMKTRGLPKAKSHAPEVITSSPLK
Chain of FXa (P00742 41-179 partner limits assumed): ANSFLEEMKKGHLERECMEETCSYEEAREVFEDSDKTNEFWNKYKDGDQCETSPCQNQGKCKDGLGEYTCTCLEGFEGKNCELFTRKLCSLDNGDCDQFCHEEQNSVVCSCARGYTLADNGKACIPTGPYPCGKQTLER

Structure (SMILES)	uPA: kapp (uPA [1])	IC50 [2] [µM]	IC50 (uPA [3]) [µM]	IC50 [4] [µM]	IC50 (tPA (recombinant)) [µM]	FXa % (I) @ 250 (FXa)	IC50 (FXa; 15 min preincubation, Tris buffer pH 8.3, 522 μM substrate) [µM]
N=C(N)Nc1ccc(CC(NC(=O)OCCCc2cn(CCOCCOCCOCCNC(=O)CCCC[C@@H]3SC[C@@H]4NC(=O)N[C@@H]43)nn2)P(=O)(Oc2ccccc2)Oc2ccccc2)cc1.O=C(O)C(F)(F)F (stereo partly drawn) [Final compound 7, 3-(1-(13-oxo-17-((3aS,4S,6aR)-2-oxohexahydro-1H-thieno[3,4-d]imidazol-4-yl)-3,6,9-trioxa-12-azaheptadecyl)-1H-1,2,3-triazol-4-yl)propyl (1-(diphenoxyphosphoryl)-2-(4-guanidinophenyl)ethyl)carbamate 2,2,2-trifluoroacetate]	86 × 10^2 ± 10 × 10^2 * M^−1 s^−1	4.7 ± 0.1	0.0156 ± 0.001	14.1 ± 0.3	58 ± 6	73% I @ 250 ^	
Cl.N=C(N)Nc1ccc(CC(NC(=O)OCCCc2cn(CCOCCOCCOCCNC(=O)c3ccc(F)cc3)nn2)P(=O)(Oc2ccccc2)Oc2ccccc2)cc1 (stereo not drawn) [Final compound 8, 3-(1-(1-(4-fluorophenyl)-1-oxo-5,8,11-trioxa-2-azamidecan-13-yl)-1H-1,2,3-triazol-4-yl)propyl (1-(diphenoxyphosphoryl)-2-(4-guanidinophenyl)ethyl)carbamate hydrochloride]	68 × 10^2 ± 25 × 10^2 * M^−1 s^−1	5.9 ± 0.8	0.019 ± 0.002	13.2 ± 0.6	46 ± 5		~62
C#CCOCCOC(=O)NC(Cc1ccc(NC(=N)N)cc1)P(=O)(Oc1ccccc1)Oc1ccccc1.O=C(O)C(F)(F)F (stereo not drawn) [Intermediate 55, 2-(prop-2-ynyloxy)ethyl 1-(diphenoxyphosphoryl)-2-(4-guanidinophenyl)ethyl carbamate 2,2,2-trifluoroacetate]	19 × 10^3 ± 4 × 10^3 * M^−1 s^−1	11 ± 1	0.0088 ± 0.0008	33 ± 4	66 ± 13	50% @ 250	
C#CCOCCOCCOC(=O)NC(Cc1ccc(NC(=N)N)cc1)P(=O)(Oc1ccccc1)Oc1ccccc1.O=C(O)C(F)(F)F (stereo not drawn) [Intermediate 56, 2-(2-(prop-2-ynyloxy)ethoxy)ethyl 1-(diphenoxyphosphoryl)-2-(4-guanidinophenyl)ethylcarbamate 2,2,2-trifluoroacetate]	12 × 10^3 ± 5 × 10^3 * M^−1 s^−1	7.8 ± 0.6	0.0085 ± 0.0012	20 ± 3	65 ± 9	58% @ 250	
C#CCOCCOCCOCCOC(=O)NC(Cc1ccc(NC(=N)N)cc1)P(=O)(Oc1ccccc1)Oc1ccccc1.O=C(O)C(F)(F)F (stereo not drawn) [Intermediate 57, 2-(2-(2-(prop-2-ynyloxy)ethoxy)ethoxy)ethyl 1-(diphenoxyphosphoryl)-2-(4-guanidinophenyl)ethylcarbamate 2,2,2-trifluoroacetate]	11 × 10^3 ± 4 × 10^3 * M^−1 s^−1	9 ± 2	0.011 ± 0.001	21 ± 5	67 ± 7	54% @ 250	
C#CCCCOC(=O)NC(Cc1ccc(NC(=N)N)cc1)P(=O)(Oc1ccccc1)Oc1ccccc1.O=C(O)C(F)(F)F (stereo not drawn) [Intermediate 58, pent-4-ynyl 1-(diphenoxyphosphoryl)-2-(4-guanidinophenyl)ethylcarbamate 2,2,2-trifluoroacetate]	30 × 10^3 ± 9 × 10^3 * M^−1 s^−1	3.4 ± 0.4	0.008 ± 0.0005	12.2 ± 0.3	29 ± 2	50% @ 250	
O=C(O)C(F)(F)F.[N-]=[N+]=NCCCCCCOC(=O)NC(Cc1ccc(NC(=N)N)cc1)P(=O)(Oc1ccccc1)Oc1ccccc1 (stereo not drawn) [Intermediate 59, 6-azidohexyl 1-(diphenoxyphosphoryl)-2-(4-guanidinophenyl)ethylcarbamate 2,2,2-trifluoroacetate]	14 × 10^3 ± 3 × 10^3 * M^−1 s^−1	3.6 ± 0.3	0.0096 ± 0.0019	2.4 ± 0.2	16.7 ± 1.7	61% @ 250	
O=C(O)C(F)(F)F.[N-]=[N+]=NCCOCCOC(=O)NC(Cc1ccc(NC(=N)N)cc1)P(=O)(Oc1ccccc1)Oc1ccccc1 (stereo not drawn) [Intermediate 60, 2-(2-azidoethoxy)ethyl 1-(diphenoxyphosphoryl)-2-(4-guanidinophenyl)ethyl carbamate 2,2,2-trifluoroacetate]	19 × 10^3 ± 8 × 10^3 * M^−1 s^−1	7.9 ± 0.3	0.0052 ± 0.001	11.8 ± 0.6	56 ± 53	57% @ 250	
O=C(O)C(F)(F)F.[N-]=[N+]=NCCOCCOCCOCCOC(=O)NC(Cc1ccc(NC(=N)N)cc1)P(=O)(Oc1ccccc1)Oc1ccccc1 (stereo not drawn) [Intermediate 62, 2-(2-(2-(2-azidoethoxy)ethoxy)ethoxy)ethyl 1-(diphenoxyphosphoryl)-2-(4-guanidinophenyl)ethylcarbamate 2,2,2-trifluoroacetate]	9 × 10^3 ± 4 × 10^3 * M^−1 s^−1	9 ± 0.7	0.015 ± 0.002	29 ± 5	70 ± 11	48% @ 250	
C#CCCCOC(=O)NC(Cc1ccc(NC(=N)N)cc1)P(=O)(Oc1ccc(NC(C)=O)cc1)Oc1ccc(NC(C)=O)cc1 (stereo not drawn) [Intermediate 63, pent-4-ynyl 1-(bis(4-acetamidophenoxy)phosphoryl)-2-(4-guanidinophenyl)ethyl carbamate 2,2,2-trifluoroacetate]	40 × 10^3 ± 8 × 10^3 * M^−1 s^−1	1.4 ± 0.1	0.0035 ± 0.0017	2.1 ± 0.2	24 ± 4	70% @ 250	
